Laboratory results: publication PMC6225275 (Molecules : A Journal of Synthetic Chemistry and Natural …, 2018)
Where “and” joins values, the source holds several entries; their conditions need not be identical. Equal entries are not always repeated.

What was measured:
Assay type in all cases: biochemical
[1] = target: T1, paraoxon (POX)-inhibited human recombinant AChE (HssAChE) (Homo sapiens, UniProt P22303); conditions: for POX-HssAChE Reactivation (% ± SD): pH 7.4
T1 construct: purchased Sigma-Aldrich

[2] = target: T2, methylparaoxon (MePOX)-inhibited human recombinant AChE (HssAChE) (Homo sapiens, UniProt P22303); conditions: for MePOX-HssAChE Reactivation (% ± SD): pH 7.4
T2 construct: purchased Sigma-Aldrich

[3] = target: T3, diisopropylfluorophosphate (DFP)-inhibited human recombinant AChE (HssAChE) (Homo sapiens, UniProt P22303); conditions: pH 7.4
T3 construct: purchased Sigma-Aldrich
T3 sequence (P22303 32-614): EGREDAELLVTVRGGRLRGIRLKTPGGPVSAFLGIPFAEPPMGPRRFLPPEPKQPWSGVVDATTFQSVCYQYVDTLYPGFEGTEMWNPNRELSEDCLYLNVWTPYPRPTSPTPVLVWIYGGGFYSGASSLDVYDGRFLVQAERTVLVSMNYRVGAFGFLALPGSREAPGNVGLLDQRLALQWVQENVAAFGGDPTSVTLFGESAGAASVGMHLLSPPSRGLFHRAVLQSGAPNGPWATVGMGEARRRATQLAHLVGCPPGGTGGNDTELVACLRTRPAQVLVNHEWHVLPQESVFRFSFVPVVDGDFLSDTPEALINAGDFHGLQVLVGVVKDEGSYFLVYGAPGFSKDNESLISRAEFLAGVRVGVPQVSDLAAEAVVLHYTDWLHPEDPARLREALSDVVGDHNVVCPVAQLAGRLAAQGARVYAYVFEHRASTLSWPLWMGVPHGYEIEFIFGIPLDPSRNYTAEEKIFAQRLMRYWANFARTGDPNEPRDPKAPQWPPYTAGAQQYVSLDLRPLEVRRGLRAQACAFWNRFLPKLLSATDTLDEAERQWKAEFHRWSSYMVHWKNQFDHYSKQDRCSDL

T2 sequence (P22303 32-614): as above
T1 sequence (P22303 32-614): as above

Row | Structure (SMILES) | POX reactivation, maximum over both concentrations [1] | POX-HssAChE Reactivation (% ± SD) [1] | MePOX reactivation, maximum over both concentrations [2] | MePOX-HssAChE Reactivation (% ± SD) [2] | DFP-HssAChE Reactivation (% ± SD) [3]
1 | C[n+]1ccccc1/C=N/O [Compound 1, pralidoxime, reference compound] | up to 11% | 10.7 ± 0.3% and 2.1 ± 0.1% | up to 30% | 30.2 ± 0.3% and 22.4 ± 0.7% | 1.3 ± 0.6% and 0.1 ± 0.4%
2 | ON=Cc1cc[n+](CCC[n+]2ccc(/C=N/O)cc2)cc1 [Compound 4, trimedoxime, reference compound] |  |  |  | 51.4 ± 0.9% and 59.5 ± 0.7% | 10.0 ± 0.5% and 2.7 ± 0.3%
3 | ON=Cc1cc[n+](C[n+]2ccc(C=NO)cc2)cc1 [Compound 5, methoxime, reference compound] |  |  |  | 14.2 ± 0.1% and 14.3 ± 0.2% | 2.4 ± 0.1% and 0.6 ± 0.3%
4 | NC(=O)c1cc[n+](CCCC[n+]2ccc(/C=N/O)cc2)cc1 [Compound 6, reference compound] |  |  |  | 54.4 ± 0.9% and 29.1 ± 0.4% | 3.8 ± 0.1% and 1.4 ± 0.1%
5 | ON=Cc1cc[n+](CCCC[n+]2ccc(/C=N/O)cc2)cc1 [Compound 7, reference compound] |  |  |  | 17.9 ± 0.1% and 21.2 ± 0.4% | 1.4 ± 0.5% and 1.4 ± 0.2%
6 | ON=Cc1cc[n+](C/C=C/C[n+]2ccc(/C=N/O)cc2)cc1 [Compound 8, reference compound] |  |  |  | 19.2 ± 0.9% and 22.8 ± 0.2% | 1.1 ± 0.3% and 1.5 ±0.2%
7 | NC(=O)c1cc[n+](C/C=C/C[n+]2ccc(/C=N/O)cc2)cc1 [Compound 9, (E)-1-(4-Carbamoylpyridinium)-4-(4-hydroxyiminomethylpyridinium)-but-2-ene Dibromide, reference compound] |  |  |  | 55.9 ± 0.5% and 41.1 ± 0.1% | 4.4 ± 0.1% and 2.1 ± 0.4%
8 | ON=Cc1cc[n+](CCCC[n+]2ccccc2)cc1.[Br-].[Br-] [Compound 10, 4-Hydroxyiminomethyl-1,1′-(but-1,4-diyl)-bispyridinium dibromide] |  |  |  | 14.3 ± 0.8% and 13.2 ± 0.1% | 2.4 ± 0.5% and 0.4 ± 0.3%
9 | ON=Cc1cc[n+](CCCC[n+]2ccccn2)cc1 [Compound 11, 4-Hydroxyiminomethyl-1,1′-(but-1,4-diyl)-1-pyridinium-1′-pyridazinium dibromide] |  | 6.3 ± 0.8% and 3.0 ± 0.3% |  | 7.1 ± 0.7% and 11.8 ± 0.4% | 1.2 ± 0.7% and 1.0 ± 0.4%
10 | ON=Cc1cc[n+](CCCC[n+]2cccc3ccccc32)cc1 [Compound 12, 4-Hydroxyiminomethyl-1,1′-(but-1,4-diyl)-1-pyridinium-1′-quinolinium dibromide] |  | 0.6 ± 0.5% and 2.0 ± 0.1% |  | 2.2 ± 0.5% and 8.6 ± 0.4% | 0.2 ± 1.0% and 0.8 ± 0.2%
11 | ON=Cc1cc[n+](CCCC[n+]2ccc3ccccc3c2)cc1 [Compound 13, 4-Hydroxyiminomethyl-1,1′-(but-1,4-diyl)-1-pyridinium-1′-isoquinolinium dibromide] |  | 9.1 ± 0.3% and 8.7 ± 0.3% |  | 8.2 ± 0.8% and 16.9 ± 0.4% | 0.7 ± 0.2% and 1.1 ± 0.2%
12 | Cc1cc[n+](CCCC[n+]2ccc(C=NO)cc2)cc1.[Br-].[Br-] [Compound 14, 4-Hydroxyiminomethyl-4′-methyl-1,1′-(but-1,4-diyl)-bispyridinium dibromide] |  |  |  | 9.5 ± 0.5% and 9.4 ± 0.2% | 1.1 ± 0.4% and 0.8 ± 0.3%
13 | CC(C)(C)c1cc[n+](CCCC[n+]2ccc(C=NO)cc2)cc1.[Br-].[Br-] [Compound 15, 4-Hydroxyiminomethyl-4′-(1,1-dimethylethyl)-1,1′-(but-1,4-diyl)-bispyridinium dibromide] |  |  |  | 4.0 ± 0.5% and 7.6 ± 0.5% | 1.7 ± 0.5% and 0.8 ± 0.3%
14 | ON=Cc1cc[n+](CCCC[n+]2ccc(-c3ccccc3)cc2)cc1.[Br-].[Br-] [Compound 16, 4-Hydroxyiminomethyl-4′-phenyl-1,1′-(but-1,4-diyl)-bispyridinium dibromide] |  | 6.9 ± 0.4% and 8.9 ± 0.5% |  | 1.7 ± 0.3% and 6.2 ± 0.4% | 0.7 ± 0.2% and 1.0 ± 0.3%
15 | ON=Cc1cc[n+](CCCC[n+]2ccc(Cc3ccccc3)cc2)cc1.[Br-].[Br-] [Compound 17, 4-Hydroxyiminomethyl-4′-phenylmethyl-1,1′-(but-1,4-diyl)-bispyridinium dibromide] |  | 1.2 ± 0.1% and 4.7 ± 0.3% |  | 0.0 ± 0.1% and 3.8 ± 0.4% | 0.0 ± 0.5% and 0.8 ± 0.2%
16 | OCc1cc[n+](CCCC[n+]2ccc(C=NO)cc2)cc1.[Br-].[Br-] [Compound 18, 4-Hydroxyiminomethyl-4′-hydroxymethyl-1,1′-(but-1,4-diyl)-bispyridinium dibromide] |  |  |  | 6.7 ± 0.3% and 8.1 ± 0.3% | 3.8 ± 1.0% and 1.4 ± 0.4%
17 | CC(=O)c1cc[n+](CCCC[n+]2ccc(C=NO)cc2)cc1.[Br-].[Br-] [Compound 19, 4-Hydroxyiminomethyl-4′-methylcarbonyl-1,1′-(but-1,4-diyl)-bispyridinium dibromide] |  | 11.9 ± 1.0% and 3.9 ± 0.3% |  | 5.2 ± 0.4% and 7.5 ± 0.1% | 1.5 ± 0.3% and 1.0 ± 0.2%
18 | O=C(O)c1cc[n+](CCCC[n+]2ccc(C=NO)cc2)cc1.[Br-].[Br-] [Compound 20, 4-Carboxy-4′-hydroxyiminomethyl-1,1′-(but-1,4-diyl)-bispyridinium dibromide] |  |  |  | 9.5 ± 0.3% and 8.8 ± 0.4% | 1.1 ± 0.5% and 0.4 ± 0.1%
19 | CCOC(=O)c1cc[n+](CCCC[n+]2ccc(C=NO)cc2)cc1 [Compound 21, 4-Ethylcarboxy-4′-hydroxyiminomethyl-1,1′-(but-1,4-diyl)-bispyridinium dibromide] |  | 7.1 ± 0.7% and 4.0 ± 0.6% |  | 3.8 ± 0.4% and 7.2 ± 0.2% | 0.8 ± 0.3% and 1.1 ± 0.2%
20 | N#Cc1cc[n+](CCCC[n+]2ccc(C=NO)cc2)cc1 [Compound 22, 4-Carbonitril-4′-hydroxyiminomethyl-1,1′-(but-1,4-diyl)-bispyridinium dibromide] |  |  |  | 11.1 ± 0.1% and 13.8 ± 0.3% | 1.7 ± 0.5% and 0.4 ± 0.2%
21 | NC(=NO)c1cc[n+](CCCC[n+]2ccc(C=NO)cc2)cc1.[Br-].[Br-] [Compound 23, 4-(1-Amino-1-hydroxyiminomethyl)-4′-hydroxyiminomethyl-1,1′-(but-1,4-diyl)-bispyridinium dibromide] |  |  |  | 21% and 20.2 ± 1.0% and 20.7 ± 0.4% | 3.1 ± 0.8% and 2.0 ± 0.2%
22 | NC(=O)c1cc[n+](CCCC[n+]2ccc(C=NO)cc2)cc1C(N)=O.[Br-].[Br-] [Compound 24, 3,4-Dicarbamoyl-4′-hydroxyiminomethyl-1,1′-(but-1,4-diyl)-bispyridinium dibromide] |  | 2.0 ± 0.4% and 2.2 ± 0.8% |  | 4.2 ± 0.5% and 10.1 ± 0.2% | 0.7 ± 0.4% and 0.7 ± 1.0%
